Results on eleven compounds are retold here after patent publication EP2997966A1, “Naphthyl Sulfonamide Pyrrolidine Derivatives as KEAP-1 Modulators for the Treatment of Diabetes, Obesity, Dyslipidemia and Related Disorders” (SANOFI, priority 2014, dated 2016).

Like-named read-outs stand apart in the source and are kept apart here.

This assay has as its target T1, human Keap1 kelch domain (amino acids Ala321-Thr609) (Homo sapiens, UniProt Q14145).
T1 construct: human Keap1 kelch domain (amino acids Ala321-Thr609)
Nature of the assay: Keap1-Nrf2 peptide binding assay (fluorescence polarisation). Conditions: binding to fluorescently labeled human Nrf2 peptide, 20 nM Keap1 kelch domain, 50 nM peptide. As for the experimental part: Keap1-Nrf2 peptide binding assay
Two microliters of test compound in reaction buffer (phosphate-buffered saline, 2 mM DL-dithiothreitol, 0.015 % (v/v) Brij-35) containing 6 % (v/v) DMSO were mixed with two microliters of the Keap1 kelch domain in reaction buffer in a black 384-well small volume microtiter plate and incubated at ambient temperature for 15 minutes. Thereafter, two microliters were added of the fluorescently labeled Nrf2 peptide in reaction buffer, and the mixture was incubated for a further 30 minutes at ambient temperature. Final concentrations of the Keap1 kelch domain and the fluorescently labeled Nrf2 peptide were 20 nM and 50 nM, respectively.
Fluorescence polarization (FP) was measured at excitation and emission wavelengths of 635 nm and 660 nm, respectively. Positive controls for binding (two microliters of reaction buffer containing 6 % (v/v) DMSO instead of test compound in the same buffer) and negative controls (as positive controls, but without Keap1 kelch domain) were included on each microtiter plate.
For orientation: Polarisation of emitted light reports the rotation of a fluorescent probe.

T1 sequence (Q14145 321-609): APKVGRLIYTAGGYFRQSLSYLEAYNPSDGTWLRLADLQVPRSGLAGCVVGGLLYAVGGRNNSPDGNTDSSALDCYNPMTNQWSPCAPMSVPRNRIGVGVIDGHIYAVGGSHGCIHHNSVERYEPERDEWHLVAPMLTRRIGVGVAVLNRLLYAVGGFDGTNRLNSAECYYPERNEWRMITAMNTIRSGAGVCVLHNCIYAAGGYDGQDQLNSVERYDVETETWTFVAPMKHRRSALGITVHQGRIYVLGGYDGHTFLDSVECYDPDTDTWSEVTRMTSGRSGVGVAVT

On to `Cc1nn(-c2ccccc2)c(C)c1S(=O)(=O)Nc1ccc(N2CC[C@@H](C(=O)O)C2)c2ccccc12` [Example 42, (3R)-1-[4-[(3,5-dimethyl-1-phenyl-pyrazol-4-yl)sulfonylamino]-1-naphthyl]pyrrolidine-3-carboxylic acid], for which the IC50 was found to be 3 µM.

Take `Cc1c(S(=O)(=O)Nc2ccc(N3CC[C@H](C(=O)O)C3)c3ccccc23)cnn1CC(C)C` [Example 29, (3S)-1-[4-[(1-isobutyl-5-methyl-pyrazol-4-yl)sulfonylamino]-1-naphthyl]pyrrolidine-3-carboxylic acid]: the IC50 (read-out: IC50) was determined as 7 µM.

On to `Cc1c(Cl)cccc1S(=O)(=O)Nc1ccc(N2CC[C@@H](C(=O)O)C2)c2ccccc12` [Example 32, (3R)-1-[4-[(3-chloro-2-methylphenyl)sulfonylamino]-1-naphthyl]pyrrolidine-3-carboxylic acid], for which, where the note is “read-out: IC50”, the IC50 was 0.8 µM.

For the compound `COc1ccc(F)c(S(=O)(=O)Nc2ccc(N3CC[C@@H](C(=O)O)C3)c3ccccc23)c1` [Example 44, (3R)-1-[4-[(2-fluoro-5-methoxyphenyl)sulfonylamino]-1-naphthyl]pyrrolidine-3-carboxylic acid], where the note is “read-out: IC50”, the concentration for half-maximal inhibition (IC50) is 2.5 µM.

The compound `O=C(O)[C@@H]1CCN(c2ccc(NS(=O)(=O)c3cccc4c3OCCO4)c3ccccc23)C1` [Example 74, (3R)-1-[4-(2,3-dihydro-1,4-benzodioxin-5-ylsulfonylamino)-1-naphthyl]pyrrolidine-3-carboxylic acid] registered an IC50 of 9.1 µM.

In the case of `Cc1c(S(=O)(=O)Nc2ccc(N3CC[C@@H](C(=O)O)C3)c3ccccc23)cnn1C1CCCC1` [Example 50, (3R)-1-[4-[(1-cyclopentyl-5-methyl-pyrazol-4-yl)sulfonylamino]-1-naphthyl]pyrrolidine-3-carboxylic acid], under “read-out: IC50”, the half-maximal inhibitory concentration (IC50) was determined as 2.8 µM.

Take `O=C(O)[C@H]1CCN(c2ccc(NS(=O)(=O)c3cc(Cl)sc3Cl)c3ccccc23)C1` [Example 18, (3S)-1-[4-[(2,5-dichloro-3-thienyl)sulfonylamino]-1-naphthyl]pyrrolidine-3-carboxylic acid]: the half-inhibitory concentration (IC50) (read-out: IC50) came to 9 µM.

The compound `O=C(O)[C@H]1CCN(c2ccc(NS(=O)(=O)c3cccc(Cl)c3Cl)c3ccccc23)C1` [Example 20, (3S)-1-[4-[(2,3-dichlorophenyl)sulfonylamino]-1-naphthyl]pyrrolidine-3-carboxylic acid] gave a half-maximal inhibitory concentration (IC50) of 8.6 µM.

Compound `O=C(O)[C@@H]1CCN(c2ccc(NS(=O)(=O)c3cc(F)cc(F)c3Cl)c3ccccc23)C1` [Example 46, (3R)-1-[4-[(2-chloro-3,5-difluorophenyl)sulfonylamino]-1-naphthyl]pyrrolidine-3-carboxylic acid] registered a concentration for half-maximal inhibition (IC50) of 7.4 µM.

Take `Cc1c(Cl)cccc1S(=O)(=O)Nc1ccc(N2CC[C@H](C(=O)O)C2)c2ccccc12` [Example 16, (3S)-1-[4-[(3-chloro-2-methylphenyl)sulfonylamino]-1-naphthyl]pyrrolidine-3-carboxylic acid]: for the setting “read-out: IC50”, the IC50 was 2.9 µM.

With `O=C(O)[C@H]1CCN(c2ccc(NS(=O)(=O)c3cc(Cl)cc(Cl)c3)c3ccccc23)C1` [Example 17, (3S)-1-[4-[(3,5-dichlorophenyl)sulfonylamino]-1-naphthyl]pyrrolidine-3-carboxylic acid], for the setting “read-out: IC50”, the IC50 amounted to 2.9 µM.

In general, IC50 refers to the midpoint of a concentration-inhibition curve.
